Source: PubChem BioAssay AID2060898 (Molecular Pharmacology Branch, DTP, NCI, 2025)

System: 616215-338-R-J1-PDC complex spheroid viability
Experiment: Anticancer human tumor 616215-338-R-J1-PDC patient-derived colon adenocarcinoma cell line growth inhibition [RAS]
Settings: for IC50: curve of first compound; for viability, T/C: stronger effect = lower value
How it was run: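 Agents were tested in combination matrices in half-log decrements from a top concentration at or near clinical Cmax (10 microM if undetermined). Targets were multi-cell spheroids of tumour lines plus HUVEC and MSC stromal cells.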
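Also: spheroids exposed to agents for seven days before viability readout.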
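For viability, T/C in this document: 100% = DMSO vehicle control viability.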

SMILES: CC(=O)OC12COC1CC(O)C1(C)C(=O)C(O)C3=C(C)C(OC(=O)C(O)C(NC(=O)OC(C)(C)C)c4ccccc4)CC(O)(C(OC(=O)c4ccccc4)C21)C3(C)C (centres undefined) + CCn1c(-c2cccnc2C(C)OC)c2c3cc(ccc31)N1CCOC(CC(NC(=O)C(C(C)C)N(C)C(=O)C3(F)CCN(C(=O)C#CC(C)(C)N(C)C)CC3)C(=O)N3CCCC(N3)C(=O)OCC(C)(C)C2)C1
- IC50 (second compound 0.000949 µM): < 31.6 nM
- IC50 (second compound 0.003 µM): < 31.6 nM
- IC50 (second compound 0.00949 µM): < 31.6 nM
- IC50 (second compound 0.03 µM): < 31.6 nM
- IC50 (second compound 0.0949 µM): < 31.6 nM
- IC50 (second compound 0.3 µM): < 31.6 nM
- viability, T/C (second compound 0.000949 µM, first compound 0.0316 µM): 30.9%
- viability, T/C (second compound 0.000949 µM, first compound 0.1 µM): 20.4%
- viability, T/C (second compound 0.000949 µM, first compound 0.316 µM): 19.5%
- viability, T/C (second compound 0.000949 µM, first compound 1 µM): 19.6%
- viability, T/C (second compound 0.000949 µM, first compound 3.16 µM): 22.6%
- viability, T/C (second compound 0.000949 µM, first compound 10 µM): 28.7%
- viability, T/C (second compound 0.003 µM, first compound 0.0316 µM): 30.8%
- viability, T/C (second compound 0.003 µM, first compound 0.1 µM): 23.1%
- viability, T/C (second compound 0.003 µM, first compound 0.316 µM): 20.3%
- viability, T/C (second compound 0.003 µM, first compound 1 µM): 22.1%
- viability, T/C (second compound 0.003 µM, first compound 3.16 µM): 24.2%
- viability, T/C (second compound 0.003 µM, first compound 10 µM): 27%
- viability, T/C (second compound 0.00949 µM, first compound 0.0316 µM): 28%
- viability, T/C (second compound 0.00949 µM, first compound 0.1 µM): 24.2%
- viability, T/C (second compound 0.00949 µM, first compound 0.316 µM): 19.9%
- viability, T/C (second compound 0.00949 µM, first compound 1 µM): 20.8%
- viability, T/C (second compound 0.00949 µM, first compound 3.16 µM): 24.8%
- viability, T/C (second compound 0.00949 µM, first compound 10 µM): 24.6%
- viability, T/C (second compound 0.03 µM, first compound 0.0316 µM): 25.9%
- viability, T/C (second compound 0.03 µM, first compound 0.1 µM): 21.9%
- viability, T/C (second compound 0.03 µM, first compound 0.316 µM): 18.3%
- viability, T/C (second compound 0.03 µM, first compound 1 µM): 19%
- viability, T/C (second compound 0.03 µM, first compound 3.16 µM): 22.6%
- viability, T/C (second compound 0.03 µM, first compound 10 µM): 22.4%
- viability, T/C (second compound 0.0949 µM, first compound 0.0316 µM): 33%
- viability, T/C (second compound 0.0949 µM, first compound 0.1 µM): 19.8%
- viability, T/C (second compound 0.0949 µM, first compound 0.316 µM): 19.8%
- viability, T/C (second compound 0.0949 µM, first compound 1 µM): 19%
- viability, T/C (second compound 0.0949 µM, first compound 3.16 µM): 22.2%
- viability, T/C (second compound 0.0949 µM, first compound 10 µM): 23.1%
- viability, T/C (second compound 0.3 µM, first compound 0.0316 µM): 28.8%
- viability, T/C (second compound 0.3 µM, first compound 0.1 µM): 17.9%
- viability, T/C (second compound 0.3 µM, first compound 0.316 µM): 17%
- viability, T/C (second compound 0.3 µM, first compound 1 µM): 17.6%
- viability, T/C (second compound 0.3 µM, first compound 3.16 µM): 20.8%
- viability, T/C (second compound 0.3 µM, first compound 10 µM): 25.5%

SMILES: CCc1c2c(nc3ccc(O)cc13)-c1cc3c(c(=O)n1C2)COC(=O)[C@]3(O)CC + CCn1c(-c2cccnc2C(C)OC)c2c3cc(ccc31)N1CCOC(CC(NC(=O)C(C(C)C)N(C)C(=O)C3(F)CCN(C(=O)C#CC(C)(C)N(C)C)CC3)C(=O)N3CCCC(N3)C(=O)OCC(C)(C)C2)C1
- IC50 (second compound 0.000949 µM): 15.3 nM
- IC50 (second compound 0.003 µM): 13.8 nM
- IC50 (second compound 0.00949 µM): 14.2 nM
- IC50 (second compound 0.03 µM): 16.4 nM
- IC50 (second compound 0.0949 µM): 8.04 nM
- IC50 (second compound 0.3 µM): 9.13 nM
- viability, T/C (second compound 0.000949 µM, first compound 0.000949 µM): 105%
- viability, T/C (second compound 0.000949 µM, first compound 0.003 µM): 101%
- viability, T/C (second compound 0.000949 µM, first compound 0.00949 µM): 56.8%
- viability, T/C (second compound 0.000949 µM, first compound 0.03 µM): 39%
- viability, T/C (second compound 0.000949 µM, first compound 0.0949 µM): 32.6%
- viability, T/C (second compound 0.000949 µM, first compound 0.3 µM): 18.1%
- viability, T/C (second compound 0.003 µM, first compound 0.000949 µM): 97.9%
- viability, T/C (second compound 0.003 µM, first compound 0.003 µM): 99%
- viability, T/C (second compound 0.003 µM, first compound 0.00949 µM): 56%
- viability, T/C (second compound 0.003 µM, first compound 0.03 µM): 35.8%
- viability, T/C (second compound 0.003 µM, first compound 0.0949 µM): 30.6%
- viability, T/C (second compound 0.003 µM, first compound 0.3 µM): 16.6%
- viability, T/C (second compound 0.00949 µM, first compound 0.000949 µM): 107%
- viability, T/C (second compound 0.00949 µM, first compound 0.003 µM): 98.4%
- viability, T/C (second compound 0.00949 µM, first compound 0.00949 µM): 58.1%
- viability, T/C (second compound 0.00949 µM, first compound 0.03 µM): 32%
- viability, T/C (second compound 0.00949 µM, first compound 0.0949 µM): 30.1%
- viability, T/C (second compound 0.00949 µM, first compound 0.3 µM): 15.1%
- viability, T/C (second compound 0.03 µM, first compound 0.000949 µM): 111%
- viability, T/C (second compound 0.03 µM, first compound 0.003 µM): 110%
- viability, T/C (second compound 0.03 µM, first compound 0.00949 µM): 58.7%
- viability, T/C (second compound 0.03 µM, first compound 0.03 µM): 40.9%
- viability, T/C (second compound 0.03 µM, first compound 0.0949 µM): 30.8%
- viability, T/C (second compound 0.03 µM, first compound 0.3 µM): 16.4%
- viability, T/C (second compound 0.0949 µM, first compound 0.000949 µM): 99.9%
- viability, T/C (second compound 0.0949 µM, first compound 0.003 µM): 97.6%
- viability, T/C (second compound 0.0949 µM, first compound 0.00949 µM): 41.9%
- viability, T/C (second compound 0.0949 µM, first compound 0.03 µM): 33.4%
- viability, T/C (second compound 0.0949 µM, first compound 0.0949 µM): 30.2%
- viability, T/C (second compound 0.0949 µM, first compound 0.3 µM): 16.6%
- viability, T/C (second compound 0.3 µM, first compound 0.000949 µM): 103%
- viability, T/C (second compound 0.3 µM, first compound 0.003 µM): 69%
- viability, T/C (second compound 0.3 µM, first compound 0.00949 µM): 48.1%
- viability, T/C (second compound 0.3 µM, first compound 0.03 µM): 37.1%
- viability, T/C (second compound 0.3 µM, first compound 0.0949 µM): 26%
- viability, T/C (second compound 0.3 µM, first compound 0.3 µM): 14.3%
